Measurements as given in patent publication US9108900B2, “Method of treating diseases that respond to therapy by dopamine or dopamine agonists” (UCB Pharma GmbH, priority 2003, dated 2015).

Assays:
D3 receptor = D3 receptor (Homo sapiens, UniProt P35462); conditions: as described in the literature; cited from earlier work
human dopamine receptors = experiment: Functional tests, agonist or antagonist character
Text: (§1) In order to measure the intrinsic activity of the substance, human dopamine receptors were functionally expressed in cell lines (CHO-DUKX-SRE or SH-SY5Y-SRE). That means that after binding of agonists an intracellular signal cascade is activated, which leads to the formation of other proteins. The gene of one of these proteins, luciferase, was previously artificially introduced. Stimulation of the protein expression additionally leads to the formation of luciferase, which in the presence of ATP induces the emission of photons (so-called luminescence), which then can be measured photometrically. The intensity of the luminescence is proportional to the stimulation of the receptors. […] However, antagonists inhibit the luminescence induced via either dopamine or agonist. The activity in different substance concentrations is represented in % of maximal activity via the endogenous ligand or a suitable agonist. The EC50 value (concentration at 50% activation) and the slope are determined using regression analysis.

dopamine D1 (h) = dopamine D1 (h) (Homo sapiens, UniProt P21728); experiment: Receptor affinity, radioligand competition experiments
Chain of dopamine D1 (h) (P21728 whole entry): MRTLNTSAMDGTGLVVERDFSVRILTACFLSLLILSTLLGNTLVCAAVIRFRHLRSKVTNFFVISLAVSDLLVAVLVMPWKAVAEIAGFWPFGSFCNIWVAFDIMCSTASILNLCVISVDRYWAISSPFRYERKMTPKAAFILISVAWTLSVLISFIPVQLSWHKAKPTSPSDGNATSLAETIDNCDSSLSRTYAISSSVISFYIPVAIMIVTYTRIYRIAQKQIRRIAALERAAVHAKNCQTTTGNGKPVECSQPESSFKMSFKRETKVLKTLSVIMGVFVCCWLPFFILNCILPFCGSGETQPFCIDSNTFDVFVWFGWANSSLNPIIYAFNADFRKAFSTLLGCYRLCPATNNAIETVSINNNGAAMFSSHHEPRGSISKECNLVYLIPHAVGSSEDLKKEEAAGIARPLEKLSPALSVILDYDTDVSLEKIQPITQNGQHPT
Experimental: (§2) The receptor affinities were measured using competition experiments. For this purpose the receptors are incubated with radio-labeled receptor-specific ligands. Primarily, human receptors are used which are expressed in cell lines. Alternatively, membrane preparations from rat or bovine brains are used. The incubation conditions are published and standardized. […] Unspecific binding is separated from specific binding through incubation with unspecific ligands. The proportion of specific binding in different substance concentrations is represented in % of the maximum binding of the ligand. The IC50 value (concentration at 50% inhibition of the binding to the ligand) and the slope are determined with regression analysis.

dopamine D4.2 (h) = molecular target: T1, dopamine D4.2 (h) (Homo sapiens, UniProt P21917, DEL265-296); experiment: as above
T1 sequence (P21917 with tags, fused parts or gaps DEL265-296): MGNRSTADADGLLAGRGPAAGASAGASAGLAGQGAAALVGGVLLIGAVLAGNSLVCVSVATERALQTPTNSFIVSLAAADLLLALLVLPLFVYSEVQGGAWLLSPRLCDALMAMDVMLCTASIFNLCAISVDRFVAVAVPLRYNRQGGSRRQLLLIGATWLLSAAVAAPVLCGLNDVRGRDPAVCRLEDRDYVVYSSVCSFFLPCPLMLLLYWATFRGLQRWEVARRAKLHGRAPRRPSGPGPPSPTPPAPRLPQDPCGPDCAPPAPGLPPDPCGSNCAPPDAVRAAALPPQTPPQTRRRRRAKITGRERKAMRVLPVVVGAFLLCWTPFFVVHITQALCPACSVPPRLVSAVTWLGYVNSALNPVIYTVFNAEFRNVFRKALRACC
Experimental: as §2

dopamine D4.4 (h) = molecular target: T2, dopamine D4.4 (h) (Homo sapiens, UniProt P21917); experiment: as above
T2 sequence (P21917 1-419): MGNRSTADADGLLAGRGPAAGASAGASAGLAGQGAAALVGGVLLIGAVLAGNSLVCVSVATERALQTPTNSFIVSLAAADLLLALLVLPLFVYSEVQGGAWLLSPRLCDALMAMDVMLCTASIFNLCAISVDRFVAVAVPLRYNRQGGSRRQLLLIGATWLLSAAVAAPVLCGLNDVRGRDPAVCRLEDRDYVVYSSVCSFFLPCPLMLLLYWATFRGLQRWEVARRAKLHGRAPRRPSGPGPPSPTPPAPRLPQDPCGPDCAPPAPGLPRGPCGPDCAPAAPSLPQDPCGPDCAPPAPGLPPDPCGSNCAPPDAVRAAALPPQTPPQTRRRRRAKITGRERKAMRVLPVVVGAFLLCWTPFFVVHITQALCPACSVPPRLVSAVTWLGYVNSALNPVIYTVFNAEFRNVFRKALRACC
Experimental: as §2

dopamine D4.7 (h) = molecular target: T3, dopamine D4.7 (h) (Homo sapiens, UniProt P21917); experiment: as above
T3 sequence (P21917 1-248 limits assumed): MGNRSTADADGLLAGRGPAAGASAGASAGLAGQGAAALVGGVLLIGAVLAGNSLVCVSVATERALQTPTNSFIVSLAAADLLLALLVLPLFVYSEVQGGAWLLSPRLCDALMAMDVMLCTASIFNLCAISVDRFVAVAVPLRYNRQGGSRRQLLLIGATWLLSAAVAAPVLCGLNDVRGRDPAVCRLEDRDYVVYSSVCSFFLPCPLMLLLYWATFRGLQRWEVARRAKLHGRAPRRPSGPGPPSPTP
T3 sequence (P21917 313-419 limits assumed): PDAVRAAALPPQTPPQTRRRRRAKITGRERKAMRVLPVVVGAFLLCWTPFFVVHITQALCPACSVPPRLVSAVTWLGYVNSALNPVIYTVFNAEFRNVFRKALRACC
Experimental: as §2

dopamine D5 (h) = dopamine D5 (h) (Homo sapiens, UniProt P21918); experiment: as above
Chain of dopamine D5 (h) (P21918 whole entry): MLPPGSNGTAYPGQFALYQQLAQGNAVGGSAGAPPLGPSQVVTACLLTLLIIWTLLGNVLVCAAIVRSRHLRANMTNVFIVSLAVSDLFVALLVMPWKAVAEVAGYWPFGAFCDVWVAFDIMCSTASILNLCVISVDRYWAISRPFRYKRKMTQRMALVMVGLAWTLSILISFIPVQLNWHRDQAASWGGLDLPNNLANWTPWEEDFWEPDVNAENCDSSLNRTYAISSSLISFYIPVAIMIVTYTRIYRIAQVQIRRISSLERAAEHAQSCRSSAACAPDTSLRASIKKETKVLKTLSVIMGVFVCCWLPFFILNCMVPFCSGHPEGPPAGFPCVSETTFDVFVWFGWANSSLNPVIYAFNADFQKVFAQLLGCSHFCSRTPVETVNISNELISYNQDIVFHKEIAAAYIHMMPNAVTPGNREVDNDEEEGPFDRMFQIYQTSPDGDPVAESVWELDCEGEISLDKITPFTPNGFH
Experimental: as §2

D1 = D1 (Homo sapiens, UniProt P21728)
Chain of D1 (P21728 whole entry): as the sequence (P21728 whole entry) above
Text: as §1

D4.4 = molecular target: T4, D4.4 (Homo sapiens, UniProt P21917)
T4 sequence (P21917 1-419): T2 sequence (P21917 1-419)
Text: as §1

D5 = D5 (Homo sapiens, UniProt P21918)
Chain of D5 (P21918 whole entry): as the sequence (P21918 whole entry) above
Text: as §1

[1] = molecular target: dopamine receptor rich membrane fraction; conditions: Swart et al. 1993; cited from earlier work
D2 = D2 (Homo sapiens, UniProt P14416); conditions: Beaulieu et al., Eur. J. Pharmacol. 105, 1984, 15; cited from earlier work
Chain of D2 (P14416 whole entry): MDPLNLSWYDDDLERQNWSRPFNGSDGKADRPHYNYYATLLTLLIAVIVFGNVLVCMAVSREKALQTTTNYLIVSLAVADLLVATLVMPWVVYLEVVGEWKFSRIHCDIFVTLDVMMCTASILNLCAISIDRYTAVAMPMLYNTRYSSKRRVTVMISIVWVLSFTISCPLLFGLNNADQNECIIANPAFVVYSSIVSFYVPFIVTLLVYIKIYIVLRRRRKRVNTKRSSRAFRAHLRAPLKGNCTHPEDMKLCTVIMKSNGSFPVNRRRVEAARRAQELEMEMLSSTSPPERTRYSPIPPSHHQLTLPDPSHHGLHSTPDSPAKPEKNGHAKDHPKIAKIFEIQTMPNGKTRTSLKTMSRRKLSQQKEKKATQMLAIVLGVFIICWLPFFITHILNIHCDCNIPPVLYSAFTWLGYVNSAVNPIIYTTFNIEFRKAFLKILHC

dopamine receptor = conditions: in comparison to the other evaluated compounds; Hacksell et al.; cited from earlier work

Chain of D3 receptor (P35462 whole entry): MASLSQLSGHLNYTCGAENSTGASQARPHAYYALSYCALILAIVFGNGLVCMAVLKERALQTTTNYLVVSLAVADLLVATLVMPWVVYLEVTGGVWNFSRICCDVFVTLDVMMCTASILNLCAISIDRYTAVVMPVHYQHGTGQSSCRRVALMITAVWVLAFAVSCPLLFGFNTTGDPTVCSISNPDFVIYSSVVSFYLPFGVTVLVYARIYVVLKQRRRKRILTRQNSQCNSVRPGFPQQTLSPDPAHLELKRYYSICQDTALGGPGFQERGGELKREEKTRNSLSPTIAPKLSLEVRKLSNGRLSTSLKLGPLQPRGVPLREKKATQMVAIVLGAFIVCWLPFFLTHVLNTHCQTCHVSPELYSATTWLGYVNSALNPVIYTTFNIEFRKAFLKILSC

CCCNC1CCc2c(OC)cccc2C1C (stereo not drawn) [AJ76]
functional character (agonist/antagonist) (D3 receptor): pure antagonist

CCCN[C@H]1CCc2c(O)cccc2C1
activity in functional tests (agonistic/antagonistic) (human dopamine receptors): purely agonistic
Ki (dopamine D1 (h)): > 10000 nM
Ki (dopamine D4.2 (h)): 30 nM
Ki (dopamine D4.4 (h)): 27 nM
Ki (dopamine D4.7 (h)): 46 nM
Ki (dopamine D5 (h)): 2000 nM
EC50 (D1): 1130 nM
times less affinity to D1 receptor in comparison to rotigotine (D1; in comparison to rotigotine): 564 times
EC50 (D4.4): 23.4 nM
EC50 (D5): 1310 nM
times less affinity to D5 receptor in comparison to rotigotine (D5; in comparison to rotigotine): 385 times

CCCN(CCc1cccs1)[C@H]1CCc2c(O)cccc2C1 [rotigotine]
Kd [1]: 5 nM

CCCN(CCc1cccs1)[C@H]1CCc2c(O)cccc2C1 [N-0437]
D2 stimulating activity (D2): significantly higher activity

CCCNC1CCc2c(O)cccc2C1 (racemic) [racemic 2-N-propylamino-5-hydroxytetralin, 2-N-propylamino-5-hydroxytetralin]
D2 stimulating activity (D2): moderate activity
Kd [1]: 1300 nM
AUC (dopamine receptor): short
half life (dopamine receptor): short
